# According to PubChem BioAssay AID624024 (Broad Institute, 2012):
# Records with an inconclusive call do not appear. Activity calls are given as the source filed them.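 How the source made its calls: active means fitted curve rises past 40% HDL binding increase at a concentration no higher than twice the top valid tested dose; inconclusive means no clear call, values can overlap the other calls; inactive means effects opposite to the expected rise, plus the rest.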
# Molecular target: Scavenger receptor class B member 1 (Mus musculus) (UniProt Q61009)
# Assay: SR-BI HDL particle binding change, fluorescent HDL – cell-based, ldlA[mSR-BI] CHO, Alexa 488-HDL, powder samples, set 3, orthogonal assay for SR-BI HDL uptake inhibitor project, dose response (AID 624024)
# Settings: ldlA[mSR-BI] CHO cells, Alexa488-HDL binding fluorescence, 3 h
# Chain of Scavenger receptor class B member 1 (Mus musculus) (Q61009 whole entry, looked up): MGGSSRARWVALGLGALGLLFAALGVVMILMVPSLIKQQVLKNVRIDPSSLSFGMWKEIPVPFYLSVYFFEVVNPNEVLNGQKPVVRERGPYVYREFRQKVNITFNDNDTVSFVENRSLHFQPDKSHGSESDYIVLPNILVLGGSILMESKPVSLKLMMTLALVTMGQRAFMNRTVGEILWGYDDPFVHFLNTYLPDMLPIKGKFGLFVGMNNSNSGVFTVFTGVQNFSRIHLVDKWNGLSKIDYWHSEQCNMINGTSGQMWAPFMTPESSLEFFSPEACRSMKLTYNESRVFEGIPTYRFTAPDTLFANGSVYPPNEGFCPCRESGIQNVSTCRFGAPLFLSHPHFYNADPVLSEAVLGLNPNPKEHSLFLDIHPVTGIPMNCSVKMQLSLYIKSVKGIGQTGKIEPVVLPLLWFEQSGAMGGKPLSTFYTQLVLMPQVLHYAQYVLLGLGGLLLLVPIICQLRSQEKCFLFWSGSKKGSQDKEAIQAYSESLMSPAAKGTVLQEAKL
row,Structure (SMILES),AC40
1,C=CCOC(=O)N(C)C[C@@H]1Oc2ccc(N)cc2C(=O)N([C@H](C)CO[Si](C)(C)C(C)(C)C)C[C@H]1C,3760 nM
2,C[C@@H]1CN([C@H](C)CO)C(=O)c2cc(NC(=O)C3CCCCC3)ccc2O[C@H]1CN(C)S(=O)(=O)c1ccc(Cl)cc1,33.2 nM
3,C[C@@H]1CN([C@H](C)CO)C(=O)c2cc(NC(=O)C3CCCCC3)ccc2O[C@H]1CN(C)S(=O)(=O)c1ccccc1Cl,222 nM
4,Cc1noc(C)c1S(=O)(=O)Nc1ccc2c(c1)C(=O)N([C@H](C)CO)C[C@@H](C)[C@H](CN(C)S(=O)(=O)c1ccc(Cl)cc1)O2,138 nM
5,C[C@@H]1CN([C@H](C)CO)C(=O)c2cc(NC(=O)Cc3cn(C)c4ccccc34)ccc2O[C@H]1CN(C)S(=O)(=O)c1ccc(F)cc1,1.76 nM
6,CC(C)CN(C(=O)COC(=O)C12CC3CC(CC(O)(C3)C1)C2)C1CCS(=O)(=O)C1 (configuration not stated),772 nM
7,C[C@H](C(=O)NC1CCCC1)N(C(=O)Cn1nnc(-c2ccc3c(c2)OCO3)n1)C1CCCCC1,16.7 nM
8,C[C@@H]1CN([C@H](C)CO)C(=O)c2cc(NC(=O)C3CCOCC3)ccc2O[C@H]1CN(C)S(=O)(=O)c1ccc(Cl)cc1,1970 nM
9,C[C@@H]1CN([C@H](C)CO)C(=O)c2cc(NC(=O)Cc3cn(C)c4ccccc34)ccc2O[C@H]1CN(C)S(=O)(=O)c1ccc(Cl)cc1,4.61 nM
10,CCCCCCC1CCC/C1=N\NC(N)=S (configuration not stated),2.72 nM
11,CNC[C@@H]1Oc2ccc(NC(=O)NC(C)C)cc2C(=O)N([C@H](C)CO[Si](C)(C)C(C)(C)C)C[C@H]1C,3380 nM

# More lines, now with the values ahead:
row,AC40,Structure (SMILES)
1,33.2 nM,C[C@@H]1CN([C@H](C)CO)C(=O)c2cc(NC(=O)Nc3ccc(F)cc3)ccc2O[C@H]1CN(C)S(=O)(=O)c1ccc(Cl)cc1
2,57.6 nM,CC(C)NC(=O)Nc1ccc2c(c1)C(=O)N([C@@H](C)CO)C[C@@H](C)[C@@H](CN(C)S(=O)(=O)c1ccc(Cl)cc1)O2
3,671 nM,CC(C)NC(=O)Nc1ccc2c(c1)C(=O)N([C@@H](C)CO)C[C@H](C)[C@@H](CN(C)S(=O)(=O)c1ccc(Cl)cc1)O2
4,3040 nM,C[C@@H]1CN([C@H](C)CO)C(=O)c2cc(NC(=O)C3CCCCC3)ccc2O[C@H]1CN(C)S(=O)(=O)c1cccc(Cl)c1
5,20.3 nM,CC(C)NC(=O)Nc1ccc2c(c1)C(=O)N([C@@H](C)CO)C[C@@H](C)[C@H](CN(C)S(=O)(=O)c1ccc(Cl)cc1)O2
6,3690 nM,CC(C)NC(=O)Nc1ccc2c(c1)C(=O)N([C@H](C)CO)C[C@@H](C)[C@@H](CN(C)S(=O)(=O)c1ccc(Cl)cc1)O2
7,16.6 nM,CC(=O)Nc1ccc(Cl)c(C(=O)Nc2ccc(N3CCN(C(=O)OC(C)(C)C)CC3)cc2)c1
8,544 nM,CC(C)NC(=O)Nc1cccc2c1O[C@@H](CN(C)S(=O)(=O)c1ccc(Cl)cc1)[C@H](C)CN([C@H](C)CO)C2=O
9,155 nM,CC(C)(C)OC(=O)N1CCN(c2ccc(NC(=O)c3cc([N+](=O)[O-])ccc3Cl)cc2)CC1
10,17500 nM,C[C@@H]1CN([C@H](C)CO)C(=O)c2cc(NC(=O)C3CCCCC3)ccc2O[C@H]1CN(C)C(=O)c1ccc(Cl)cc1
11,12.1 nM,CC(C)NC(=O)Nc1ccc2c(c1)C(=O)N([C@@H](C)CO)C[C@H](C)[C@H](CN(C)S(=O)(=O)c1ccc(Cl)cc1)O2
12,218 nM,COc1c(NC(=O)C(=O)c2ccc(OCCN3CCOCC3)c3ccccc23)cc(C(C)(C)C)cc1NS(C)(=O)=O
13,1870 nM,C=CCOC(=O)N(C)C[C@@H]1Oc2ccc(NC(=O)OCC3c4ccccc4-c4ccccc43)cc2C(=O)N([C@H](C)CO)C[C@H]1C
14,3670 nM,CCOc1cc2c3c(c1)C1(C(=O)N3C(C)(C)CC2C)C(C#N)=C(N)N2C(=C1C#N)Nc1ccccc12 (configuration not stated)
15,6330 nM,C[C@@H]1CN([C@H](C)CO[Si](C)(C)C(C)(C)C)C(=O)c2cc(NC(=O)C3CCCCC3)ccc2O[C@H]1CN(C)C(=O)c1ccc(Cl)cc1
16,19.9 nM,COCC(=O)N1CCc2cc(-c3csc(NC(=O)c4cc(OC)cc(OC)c4)n3)ccc21

# Same assay, conditions: ldlA[mSR-BI] CHO cells, Alexa488-HDL binding fluorescence, 3 h; at 35 µM (top of the series)
row,Structure (SMILES),"HDL binding change, positive = increase"
1,O=C1C2C3C=CC(C3)C2C(=O)N1c1cccc(N2C(=O)C3C4C=CC(C4)C3C2=O)n1 (configuration not stated),4.51% (inactive)
2,O=C(O)CC(C(=O)Nc1cccc(C(F)(F)F)c1)C1CCCO1 (configuration not stated),64.3% (inactive)
3,C=CCOC(=O)N(C)C[C@@H]1Oc2ccc(NC(=O)NC(C)C)cc2C(=O)N([C@H](C)CO[Si](C)(C)C(C)(C)C)C[C@H]1C,90.1% (inactive)

# Other lines, results leading:
row,"HDL binding change, positive = increase",Structure (SMILES)
1,37.2% (inactive),COc1ccc2c(c1)CC(C1(O)C(=O)N(C)c3ccccc31)C2=O (configuration not stated)
2,36% (inactive),Cc1ccc(OCc2cc(C(=O)N3CCCC(O)C3)no2)cn1 (configuration not stated)
